± gives the expanded uncertainty stated by the source.

We go through one compound from the NIST ThermoML archive (doi:10.1021/je800646h).

For the data set the following is noted: Crystal; DTA.

Turning to `Nc1ccc(O)c2c1C(=O)c1c(O)cc(Br)c(N)c1C2=O` [1,5-diaminobromo-4,8-dihydroxyanthraquinone], the Triple point temperature is given as 453.4 ± 1.1 K.
